Laboratory results published in patent EP4748844A1, “AZETIDINE COMPOUND AND MEDICAL USE THEREOF” (SHANGHAI INSTITUTE OF MATERIA MEDICA, CHINESE ACADEMY OF …, priority 2023, dated 2025).

Experiments:
[1] = tested on: ISG gene expression induced by MSA-2 in human THP1-Blue-ISG cells; experiment: Inhibition of MSA-2-induced ISG gene expression in human THP1-Blue-ISG cells (Quanti-Blue, OD650); format: cell-based; details: STING agonist MSA-2 10 µM, incubated for 24 hours
Experimental: 10 µL of compound diluted with PBS/physiological saline was added to each well of a 96 well cell culture plate. The STING agonist was MSA-2, which was added to the counted cell suspension at a final concentration of 10 µM. For the control group without compounds, 10 µL of PBS/physiological saline containing 2% DMSO was added. 3 replicate wells were set in each group. THP1-Blue-ISG cells were counted and adjusted to a cell concentration of 4× 10^5/mL, and 190 µL of cells containing STING agonist were added to each well for incubation. Therefore, the final volume of each test well was 200 µL, the content of DMSO was 0.1%, and the final concentration of the compound tested was 10/3.3/1.1/0.4/0.13/0.04/0.013/0.004 µM, incubated for 24 hours. In addition, 190 µL of cells without STING agonist and 10 µL of physiological saline containing 2% DMSO were added to the blank group. 3 replicate wells were set in each group.
After 24 hours, 20 µL of culture medium was taken from each well and transferred to a new 96 well plate. 180 µL of chromogenic solution Quanti-Blue was added. The plate was placed in a 37 °C incubator. After 2 hours, the OD650 values were measured.
Result analysis: Inhibition rate (%) = (Con(OD650)−Treated(OD650))/Con(OD650) × 100% [formula]
(§1) The IC50 calculation of inhibitors was implemented using the Graphpad Prism 8 software's calculation method log (inhibitor) vs. response - Variable slope (four parameters), with a constrain interval of 0-100.

[2] = tested on: DMXAA induced ISG gene expression in mouse RAW-Lucia cells; experiment: Inhibition of DMXAA-induced ISG gene expression in mouse RAW-Lucia cells (QUANTI-Luc); format: cell-based; details: STING agonist DMXAA 50 µM, incubated for 24 hours
Experimental: 10 µL of compound diluted with PBS/physiological saline was added to each well of a 96 well cell culture plate. The STING agonist was DMXAA, which was added to the counted cell suspension at a final concentration of 50 µM. For the control group without compounds, 10 µL of PBS/physiological saline containing 2% DMSO was added. 3 replicate wells were set in each group. RAW-Lucia cells were counted and adjusted to a cell concentration of 4×10^5/mL, and […] of cells were added to each well for incubation. Therefore, the final volume of each test well was 200 µL, the content of DMSO was 0.1%, and the final concentration of the compound tested was 10/3.3/1.1/0.4/0.13/0.04/0.013/0.004 µM. The final concentration of STING agonist DMXAA was 50 µM. The mixture was incubated for 24 hours. In addition, 200 µL of culture medium was added to the blank group. 3 replicate wells were set in each group.
After 24 hours, 20 µL of culture medium was taken from each well and transferred to a new 96 well plate with photopermeable bottom. 50 µL of the luciferase detection reagent QUANTI-Luc™ was added, and the […] was immediately measured (avoid light).
Result analysis: Inhibition rate (%) = (Con(Lum)−Treated(Lum))/Con(Lum) × 100% [formula]
as §1

Compound | IC50 [1] [nM] | IC50 [2] [nM]
CC1(C)C(=O)N(CC2CN(c3ccccc3)C2)c2cc(C(=O)Nc3c[nH]c4ccccc34)ccc21 [Example I-11, N-(1H-indol-3-yl)-3,3-dimethyl-2-oxo-1-((1-phenylazetidin-3-yl)methyl)indolin-6-carboxamide] | 180 | 23
COc1cccc(N2CC(CN3C(=O)C(C)(C)c4ccc(C(=O)Nc5c[nH]c6ccccc56)cc43)C2)c1 [Example I-15, N-(1H-indol-3-yl)-1-((1-3-methoxyphenylazetidin-3-yl)methyl)-3,3-dimethyl-2-oxoindolin-6-carboxamide] | 132 | 61
CC1(C)C(=O)N(CC2CN(c3cc(F)cc(C(F)(F)F)c3)C2)c2cc(C(=O)Nc3c[nH]c4ccccc34)ccc21 [Example I-17] | 32 | 6.8
CC1(C)C(=O)N(CC2CN(c3cc(Cl)cc(C(F)(F)F)c3)C2)c2cc(C(=O)Nc3c[nH]c4ccccc34)ccc21 [Example I-18] | 56 | 19
CC1(C)C(=O)N(CC2CN(c3ccsc3)C2)c2cc(C(=O)Nc3c[nH]c4ccccc34)ccc21 [Example I-20, N-(1H-indol-3-yl)-3,3-dimethyl-2-oxo-1-((1-(thien-3-yl)azetidin-3-yl)methyl)indolin-6-carboxamide] | 296 | 16
O=C(Nc1c[nH]c2ccccc12)c1ccc2c(c1)N(Cc1ccsc1)C(=O)CS2 [Example I-55, N-(1H-indol-3-yl)-3-oxo-4-(thien-3-ylmethyl)-3,4-dihydro-2H-benzothien[b][1,4]thiazin-6-carboxamide] | 56 | 80
O=C(Nc1c[nH]c2ccccc12)c1ccc2c(c1)N(CC1CC1)C(=O)CS2 [Example I-62, 4-(cyclopropylmethyl)-N-(1H-indol-3-yl)-3-oxo-3,4-dihydro-2H-benzo[b][1,4]thiazin-6-carboxamide] | 121 | 38

Continued, values first:

IC50 [1] [nM] | IC50 [2] [nM] | Compound
235 | 2.24 | CC1(C)C(=O)N(Cc2ccccc2)c2cc(C(=O)Nc3c[nH]c4ccccc34)ccc21 [Example I-76, 1-benzyl-N-(1H-indol-3-yl)-3,3-dimethyl-2-oxoindolin-6-carboxamide]
334 | 7.4 | CC1(C)C(=O)N(CC2CC2)c2cc(C(=O)Nc3c[nH]c4ccccc34)ccc21 [Example I-78, 1-cyclopropylmethyl-N-(1H-indol-3-yl)-3,3-dimethyl-2-oxoindolin-6-carboxamide]
626 | 24 | CC1(C)C(=O)N(Cc2ccco2)c2cc(C(=O)Nc3c[nH]c4ccccc34)ccc21 [Example I-80, 1-(furan-2-ylmethyl)-N-(1H-indol-3-yl)-3,3-dimethyl-2-oxoindolin-6-carboxamide]
237 | 0.42 | CC1(C)C(=O)N(CCc2ccccc2)c2cc(C(=O)Nc3c[nH]c4ccccc34)ccc21 [Example I-81, N-(1H-indol-3-yl)-3,3-dimethyl-2-oxo-1-phenethylindolin-6-carboxamide]
